In patent US6746688B1, “Apparatus for the transdermal treatment of Parkinson's disease” (Neuroderm Ltd., priority 1996, dated 2004):
Read-outs that look alike come from different tables or passages of the source.

Key:
[1] = Solubility of LD derivatives in potential solvents; type: physicochemical
Excerpt: The solubility of LD, LD methyl ester (LDME) and LD ethyl ester (LDEE) was examined in several potential solvents, with increasing amounts of the three LD derivatives being added to a constant volume of 5% propionic acid in water or 10% propionic acid in propylene glycol.

[2] = test system: Parkinson's disease; details: Refs. 19-21; cited from earlier work
[3] = Stability of LDEE in formulations by thin layer chromatography; type: physicochemical
Method: The stability of LDEE was tested in several combinations of potential components of the formulation. For this purpose, 500 mg LDEE was dissolved in 1 ml 5% propionic acid just before the beginning of the stability experiment. In parallel, 500 mg LDEE was dissolved in 1 ml propylene glycol containing 10% propionic acid. These preparations of LDEE were used as stock solutions for several tested formulations as follows: […]
1) LDEE in aqueous solution of 5% propionic as prepared above.
2) Same solution as in No. 1 above+5% sodium deoxycholate.
3) Same solution as in No. 1 above+5% sodium dodecylsulfate.
4) Same solution as in No. 1 above+5% Tween-20.
5) Same solution as in No. 1 above+5% tritonX100.
6) Same solution as in No. 1 above+glycerol at a ratio of 1:1.
7) Same solution as in No. 1 above+propylene glycol at a ratio of 2:1.
8) LDEE in propylene glycol containing 10% propionic acid.
9) Same solution as in No. 8 above+5% sodium deoxycholate.
10) Same solution as in No. 8 above+5% sodium dodecylsulfate.
The above LDEE formulations were run on a thin layer chromatography (on silica gel—Merk Art. 5735; and on cellulose—Merk Art. 5574) for a qualitative detection of LDEE and its degradative products. The various LDEE formulations were kept at room temperature for several days and separation of the LDEE and its degradative products on the thin layer chromatography were repeated at various times after dissolving the LDEE. The running solvents for the thin layer chromatography were:
a) Propanol: Butanoic Acid: Water (20:4:10).
b) Dichloromethane: Acetone: Ethyl-Acetate: Methanol (35:15:1:0.25).

[4] = Pilot experiment of transdermal delivery, LDEE in serum by HPLC with electrochemical detector; type: in vivo; details: two human volunteers, 24 h dermal exposure, propylene glycol with 10% propionic acid and 5% sodium deoxycholate or sodium dodecylsulfate
Method: In a pilot experiment of transdermal delivery, two human volunteers were exposed for 24 h to LDEE dissolved in propylene glycol containing 10% propionic acid and 5% of either sodium deoxycholate (one volunteer) or sodium dodecylsulfate (one volunteer). Blood samples were taken at various times after the application of the LDEE on the skin and LDEE in the serum was separated on high performance liquid chromatography and determined with an electrochemical detector. The protocol and the details of this pilot study are described in the enclosed appendix. […] These levels are considered appropriate for obtaining therapeutic effect in Parkinson's patients.

Compound	solubility [1]	LD plasma levels at which therapeutic effects were noticed [2] [ng/mL]	degradative products on thin layer chromatography ([3]; 24 h after dissolving, room temperature, formulations that contained tritonX100)	degradative products on thin layer chromatography ([3]; 24 h after dissolving, room temperature, other formulations (without tritonX100))	degradative products on thin layer chromatography ([3]; 48 h after dissolving, room temperature, all the aqueous solutions)	order of degradation among aqueous formulations ([3]; 48 h after dissolving, room temperature, aqueous solutions)	degradative products on thin layer chromatography ([3]; immediately after the preparation, all formulations)	time LDEE was stable ([3]; propylene glycol-based formulations, room temperature)	blood levels of LDEE after dermal application [4]	solubility ([1]; 5% propionic acid in water)	solubility ([1]; 10% propionic acid in propylene glycol)
N[C@@H](Cc1ccc(O)c(O)c1)C(=O)O [LD, Levodopa]	negligible amounts	300 to 800									
CCOC(=O)[C@@H](N)Cc1ccc(O)c(O)c1 [LDEE, levodopa-ethyl-ester]	at least 660 mg in 1 ml		Degradative products appeared	did not show significant degradation	degradative products appeared	formulation containing tritonX100>formulation containing Tween-20 >formulation containing sodium dodecylsulfate=formulation containing sodium deoxycholate	No degradative products were seen	more than 48 h	about 200 ng/ml		
COC(=O)[C@@H](N)Cc1ccc(O)c(O)c1 [LDME, LD methyl ester]										negligible amounts	negligible amounts
